These results are taken from patent US10781183B2, “Small molecule inducers of reactive oxygen species and inhibitors of mitochondrial activity” (The Regents of the University of Michigan, priority 2016, dated 2020).

Each structure is given as a SMILES string. Counter-ions that a name gives are not always drawn. Like-named read-outs stand apart in the source and are kept apart here.

Data set [1] concerns BxPC-3 cells. Put plainly: MTT cytotoxicity assay, BxPC-3. As to conditions: Homo sapiens, BXPC-3, 72 h, Table 1, 72 h, Mean ± SD, three independent experiments. It is filed as cell-based. On the procedure: (§1) MiaPaCa-2, Panc-1 and BxPC-3 pancreatic cancer cell lines were obtained from the ATCC. Normal pancreatic cells HPDE and HPNE were kindly provided (Translational Oncology Program, University of […], Ann Arbor, Mich.). Gemcitabine resistant cell line MiaPaCa-2-GR (gemcitabine resistant) was kindly provided (Department of Pathology, Wayne State University, Detroit, Mich.). All cell lines were cultured as monolayer and maintained in RPMI1640 supplemented with 10% fetal bovine serum (FBS) in a humidified atmosphere with 5% CO2 at 37° C. MiaPaCa-2-GR culture was supplemented with 200 nM gemcitabine.
(§2) Cytotoxicity of compounds was evaluated with 3-(4,5-dimethylthiazol-2-yl)-2,5-diphenyltetrazolium bromide (MTT) assay. Cells were placed in 96-well plate at 3000-8000 cells/well. After overnight attachment, compounds were added to the wells at sequential dilutions (30 nM-10 μM for most cell lines). After 72 h treatment, MTT was added into the media to a final concentration of 300 μg/mL. Cells were incubated for 3 h at 37° C., and the insoluble formazan converted by viable cells were dissolved in 150 μL of DMSO. Absorbance at 570 nm was read by microplate reader (Molecular devices, Sunnyvale, Calif.), and inhibition of cell proliferation was calculated using the following formula: Inhibition of cell proliferation (%)=(1−ODtreatment/ODcontrol)×100%
A general note: Tetrazolium assays rely on reduction of a dye to a coloured formazan, in cell work by metabolically active cells.

For data set [2], the system named is MiaPaCa-2 cells. Description: MTT cytotoxicity assay, MiaPaCa-2. It is filed as cell-based. As to conditions: MTT assay, 72 h. On the procedure: as §1, §2
The subject of data set [3] is Panc-1 cells. Description: MTT cytotoxicity assay, Panc-1. As to conditions: Homo sapiens, PANC-1, 72 h, Table 1, 72 h, Mean ± SD, three independent experiments. It is filed as cell-based. On the procedure: as §1, §2
Data set [4] concerns MiaPaCa-2 xenograft. Put plainly: MiaPaCa-2 xenograft studies. It is filed as in vivo, NOD/SCID mice. The following applies: QD325 5 mg/kg five times a week; gemcitabine 15 mg/kg once a week; control 1503±189 mm^3. On the procedure:
MiaPaCa-2 cells (2.0×10^6) in a 100 μL suspension of RPMI1640 was injected subcutaneously into dorsal flank of 6-week NOD/SCID mice. Tumor size was monitored twice a week through caliper measurement using the following equation: V=d^2×D/2, where d represents width and D represents length of the tumor. In study 1, mice were randomly grouped (n=5 per group) when average tumor size reached 65 mm^3. Daily treatment was given at five days on two days off cycles. QD325 was given at 5 mg/kg in 100 μL vehicle (5% DMSO, 60% Propylene glycol, 35% Saline) by intraperitoneal injection. […] Unpaired t test was performed for data analysis and p<0.05 was considered significant. […] Procedures for study 2 with gemcitabine treatment are detailed in supplemental information.
On necropsy, tumors, hearts, kidneys, livers, lungs, spleens and pancreases were collected, fixed in 10% neutral buffered formalin, embedded in paraffin, and sectioned. Sections ([…]) were stained with hematoxylin and eosin to facilitate histologic examination. For Ki67 expression level, immunohistochemistry staining was performed on sections with Ki67 antibody. Embedding, sectioning and staining of samples were performed by ULAM pathology core for animal research at the University of Michigan. Representative images were taken on Olympus IX83 microscope with 20× magnification.

Data set [5] concerns pancreatic cancer. As to conditions: cited from earlier work.
For data set [6], the system named is MiaPaCa-2 cells. Description: ROS detection assay (H2DCFDA probe). It is filed as cell-based. The following applies: MiaPaCa-2; NAC 5 mM for 30 min pretreatment (FIG. 3B). On the procedure: To quantify ROS induction by redox modulators, a high throughput ROS assay in 384-well plates using H2DCFDA as the ROS detection probe was developed (FIG. 1A).
Cells were detached by 0.05% trypsin-EDTA, neutralized, centrifuged (1200 rpm, 5 min) and resuspended in cell culture media. Suspension were then treated with 20 μM cell permeable H2DCFDA for 30 min at 37° C. Cells were then centrifuged (1200 rpm, 5 min) and washed with cell culture media to remove excess probe. After washing, cells were placed in black-wall 384-well plate at 20,000 cells/well, incubated for 30 min and treated by compounds at designated conditions. Fluorescent signal were then read at 493 nm/523 nm on BioTek H1 plate reader for ROS detection.

Data set [7] relates to mtDNA content in MiaPaCa-2 cells. Put plainly: Measurement of mtDNA content by qPCR. The following applies: MiaPaCa-2, 6 h; 12S rRNA vs genomic 18S rRNA (FIG. 11B). It is filed as cell-based. On the procedure:
To assess mtDNA content, genomic DNA was isolated with QIAamp® DNA mini kit (Qiagen, Germantown, Md.) from MiaPaCa-2 cells. The mtDNA content was evaluated by co-amplifying a DNA fragment encoding mitochondrial 12S rRNA (forward primer: 5′-[…]-3′; reverse primer: 5′-TGCGCTTACTTTGTAG CCTTCAT-3′) and a DNA fragment encoding the nuclear 18S rRNA (forward primer: 5′-CCCTGCC CTTTGTACACACC-3′; reverse primer: 5′-GATCCGAGGGCCTCACTA-3′). (Vadrot et al., 2012) Real-time qPCR was performed on Viia7 cycler (Applied Biosystems). Amplifications were monitored and analyzed by measuring the intercalation of the fluorescent dye from Fast SYBR® Green Master Mix (Applied Biosystems). Relative mtDNA contents were calculated using 18S rRNA as gene reference.
On the technique in general: In qPCR the cycle at which signal appears reflects the starting amount.

As a reminder, the IC50 is the concentration at which inhibition is half-maximal. Regarding `Nc1ccn([C@@H]2O[C@H](CO)[C@@H](O)C2(F)F)c(=O)n1` [Gemcitabine, 2′-deoxy-2′, 2′-difluorocytidine monohydrochloride (b-isomer), reference compound], the IC50 in data set [1] amounted to 50 ± 20 nM; in data set [2] (Homo sapiens, MIA PaCa-2, 72 h, Table 1, Mean ± SD, three independent experiments) it was 110 ± 70 nM; in data set [3], 200 ± 100 nM. The “average tumor size at the end of the 48-day treatment period” value in data set [4] was determined as 387±74 mm^3. Further, the median overall survival is 6.8 months in data set [5] (metastatic pancreatic cancer, gemcitabine group vs FOLFIRINOX group (Conroy et al., 2011)) and 6.7 months in data set [5] (pancreatic cancer patients, addition of nab-paclitaxel to gemcitabine (Von Hoff et al., 2013)).

On to `OO` [H2O2, reference compound], for which, in data set [6], the “ROS induction after NAC pretreatment” value is listed as “blocked”. In data set [2] (NAC 5 mM (FIG. 3C)), the “cytotoxicity in presence of NAC” value is given as “decreased cytotoxicity”. In data set [7], the “mtDNA content 6 hours after treatment” value is recorded as “small but significant decrease in mtDNA content”.
